Results published in paper PMC2365028, “Transepithelial Transport and Metabolism of Boronated Dipeptides Across Caco-2 and HCT-8 Cell Monolayers” (Metal-Based Drugs, 1996).
Where “and” joins values, the source holds several entries; their conditions need not be identical. Equal values may be shown once. Where a SMILES comes first, the peptide text is derived from it.

How the values were obtained:
[1] = system: HCT-8 cell monolayers; assay: Apical-to-basal transport across HCT-8 cell monolayers (Transwell)
From the text: TRANSEPITHELIAL TRANSPORT AND METABOLISM OF BORONATED DIPEPTIDES ACROSS CACO-2 AND HCT-8 CELL MONOLAYERS Amy L. Elkins,John G. Eley,3, Merrill C. […] This study examined the effect of boronation on the transepithelial transport and metabolism of three glycine-phenylalanine dipeptides in Caco-2 and HCT-8 cell monolayers. […] Oral delivery of proteins and peptides as therapeutic agents is problematic due to their low bioavailability. This is mainly due to both their poor permeability across cellular barriers and to enzymatic degradation that occurs in the gut lumen, brush border, and enterocyte cytoplasm (2). […] Such as a substitution may also have the potential to alter the in vivo bioavailability of dipeptides. […] This study was undertaken to determine the effect of boronation on the transepithelial transport and metabolism of three glycine-phenylalanine dipeptides. […] Caco-2 cells are human colon adenocarcinoma cells first isolated from a primary colonic tumor (4). The cell line undergoes spontaneous enterortic differentiation in culture after reaching cotfflucnce, and morphologically resembles small intestinal epitheliun after three xveeks in culture (5). These morphological characteristics include the development of a brush border region expressing microvilli, occluding junctions, dome formations, and the formation of tight junctions leading to cell polarity. […] The cell line expresses a dipeptide carrier transport system in both the apical and basal membranes (9-10). […] HCT-8 cells are human adenocarcinoma cells from the ileocecal region; as such, these cells may give a truer reflection of gut absorption compared to Caco-2 cells which are derived from the colonic region. The cells produce a polarized differentiated monolayer consisting of enterocyte-like columnar cells that are interconnected by mature tightjunctions and desmosomes and exposed microvilla (11). The structural and functional integrity of the tight junctions of cells grown on polyester filter cups (Falcon, BD) and membrane filter inserts (Transwell(R), Costar) have been confirmed by transmission electron microscopy, transepithelial electrical resistance measurements, and transport of impermeant markers such as mannitol and polyethylene glycol (11, 12). […] Compound//was donated by Boron Biologicals, Inc., Raleigh, NC. Compound 111 was synthesized as follows: L-phenylalanine methyl ester hydrochloride (2.09 g, 9.7 mmol) and dimethylglycine (1 g, 9.7 retool) xvere suspended in 30 ml dry tetrahydrofuran with 10 mmol of triethylamine, dicyclohexyl-carbodiinfide and hydrox3'benzotriazole. The reaction was stirred at room temperature for 48 hours under nitrogen and the solvent was removed under reduced pressure. The product was purified on silica gel, two void volumes of hexane, two void volumes hexane/ethanol (8'1), and then hexane/ethanol (5:1). […] For the transport studies, cells were diluted with growth medium to give a total of […] cells/cm in 1.5 mls. The 1.5 ntis was placed in the apical compartment of a Transwcll(R) (Costar). The Transxvell(R) system is a 6-well plate with each well having an apical compartment capacity of 1.5 ntis, a basal compartment capacity of 2.5 ntis, and a 4.71 cm polycarbonate microporous (0.45 gin) membrane separating the two compartments. Cell monolayers in the Transwell(R) were allowed to grow for 21 days while the medium was replaced every 3 days. […]

[2] = system: Caco-2 cell monolayers; assay: Apical-to-basal transport and metabolism across Caco-2 cell monolayers (Transwell); settings: for % Mass Balance / % Mass Transported / % Mass in Apical Side / Pseudo first-order rate constant k + SD / Apparent permeability coefficient Pe + SD / % Ester in the basal compartment / % FA (corresponding free acid) in the basal compartment: 4 h; for % Ester in the basal compartment / % FA (corresponding free acid) in the basal compartment: Table 9, side-by-side experiment
From the text: TRANSEPITHELIAL TRANSPORT AND METABOLISM OF BORONATED DIPEPTIDES ACROSS CACO-2 AND HCT-8 CELL MONOLAYERS Amy L. Elkins,John G. Eley,3, Merrill C. […] This study examined the effect of boronation on the transepithelial transport and metabolism of three glycine-phenylalanine dipeptides in Caco-2 and HCT-8 cell monolayers. […] Oral delivery of proteins and peptides as therapeutic agents is problematic due to their low bioavailability. This is mainly due to both their poor permeability across cellular barriers and to enzymatic degradation that occurs in the gut lumen, brush border, and enterocyte cytoplasm (2). […] Such as a substitution may also have the potential to alter the in vivo bioavailability of dipeptides. […] This study was undertaken to determine the effect of boronation on the transepithelial transport and metabolism of three glycine-phenylalanine dipeptides. […] Caco-2 cells are human colon adenocarcinoma cells first isolated from a primary colonic tumor (4). The cell line undergoes spontaneous enterortic differentiation in culture after reaching cotfflucnce, and morphologically resembles small intestinal epitheliun after three xveeks in culture (5). These morphological characteristics include the development of a brush border region expressing microvilli, occluding junctions, dome formations, and the formation of tight junctions leading to cell polarity. […] The cell line expresses a dipeptide carrier transport system in both the apical and basal membranes (9-10). […] HCT-8 cells are human adenocarcinoma cells from the ileocecal region; as such, these cells may give a truer reflection of gut absorption compared to Caco-2 cells which are derived from the colonic region. The cells produce a polarized differentiated monolayer consisting of enterocyte-like columnar cells that are interconnected by mature tightjunctions and desmosomes and exposed microvilla (11). The structural and functional integrity of the tight junctions of cells grown on polyester filter cups (Falcon, BD) and membrane filter inserts (Transwell(R), Costar) have been confirmed by transmission electron microscopy, transepithelial electrical resistance measurements, and transport of impermeant markers such as mannitol and polyethylene glycol (11, 12). […] Compound//was donated by Boron Biologicals, Inc., Raleigh, NC. Compound 111 was synthesized as follows: L-phenylalanine methyl ester hydrochloride (2.09 g, 9.7 mmol) and dimethylglycine (1 g, 9.7 retool) xvere suspended in 30 ml dry tetrahydrofuran with 10 mmol of triethylamine, dicyclohexyl-carbodiinfide and hydrox3'benzotriazole. The reaction was stirred at room temperature for 48 hours under nitrogen and the solvent was removed under reduced pressure. The product was purified on silica gel, two void volumes of hexane, two void volumes hexane/ethanol (8'1), and then hexane/ethanol (5:1). […] For the transport studies, cells were diluted with growth medium to give a total of […] cells/cm in 1.5 mls. The 1.5 ntis was placed in the apical compartment of a Transwcll(R) (Costar). The Transxvell(R) system is a 6-well plate with each well having an apical compartment capacity of 1.5 ntis, a basal compartment capacity of 2.5 ntis, and a 4.71 cm polycarbonate microporous (0.45 gin) membrane separating the two compartments. Cell monolayers in the Transwell(R) were allowed to grow for 21 days while the medium was replaced every 3 days. The cells were grown in Dulbecco's Modified Eagle Medium (D-MEM) containing L-glutamine and sodium pyruvate at 37C under 5% CO-. and saturated humidity. Additives to the medium included 10% heat- inactivated fetal bovine serum, 10 mM nonessential amino acids, 100 units of penicillin and […] of streptomycin per ml of medium. 278 A.L. Elkins, J.G. Eley, M.C.

[3] = Stability in HBSS/HEPES buffer and apical/basal media without the Transwell system; type: physicochemical; settings: HBSS/HEPES buffer pH 7.4, 37C, or apical and basal media
[4] = system: various murine and human tissue cultured cancer cells; settings: cited from earlier work
[5] = 0.01N NaOH, 37C, 6 hours
[6] = system: Caco-2 cell monolayers; assay: Basal-to-apical transport across Caco-2 cell monolayers; settings: basal-to-apical
From the text: TRANSEPITHELIAL TRANSPORT AND METABOLISM OF BORONATED DIPEPTIDES ACROSS CACO-2 AND HCT-8 CELL MONOLAYERS Amy L. Elkins,John G. Eley,3, Merrill C. […] This study examined the effect of boronation on the transepithelial transport and metabolism of three glycine-phenylalanine dipeptides in Caco-2 and HCT-8 cell monolayers. […] Oral delivery of proteins and peptides as therapeutic agents is problematic due to their low bioavailability. This is mainly due to both their poor permeability across cellular barriers and to enzymatic degradation that occurs in the gut lumen, brush border, and enterocyte cytoplasm (2). […] Such as a substitution may also have the potential to alter the in vivo bioavailability of dipeptides. […] This study was undertaken to determine the effect of boronation on the transepithelial transport and metabolism of three glycine-phenylalanine dipeptides. […] Caco-2 cells are human colon adenocarcinoma cells first isolated from a primary colonic tumor (4). The cell line undergoes spontaneous enterortic differentiation in culture after reaching cotfflucnce, and morphologically resembles small intestinal epitheliun after three xveeks in culture (5). These morphological characteristics include the development of a brush border region expressing microvilli, occluding junctions, dome formations, and the formation of tight junctions leading to cell polarity. […]

[7] = system: brush border aminopeptidases; settings: rat brush border aminopeptidases; cited from earlier work
[8] = perfusion into the jejunum, two studies; cited from earlier work
[9] = Table 10, 37C static, 4 h, initial concentration 0.75 mM
[10] = Table 1, 37C static, initial concentration 0.75 mM
[11] = Table 1, 37C static, initial concentration 1.0 mM
[12] = Table 1, 37C static, initial concentration 2.5 mM
[13] = Table 1, 37C static, initial concentration 5.0 mM
[14] = Table 1, 37C static, initial concentration 7.5 mM
[15] = Table 2, 37C static, initial concentration 1.0 mM
[16] = Table 2, 37C static, initial concentration 5.0 mM (fourth row)
[17] = Table 2, 37C static, initial concentration 7.5 mM

COC(=O)[C@H](Cc1ccccc1)NC(=O)[BH2-][N+](C)(C)C [Compound I, N-[(trimethylamine-boryl)-carbonyl]-L-phenylalanine methyl ester]
unaccounted for as the ester or the respective free acid ([1]; HCT-8 cell monolayers): ~45%
% Mass Balance [1, 9]: 88.2%
% Mass Transported [1, 9]: 77.3%
% Mass in Apical Side [1, 9]: 10.9%
Mass Transported (collected in the basal medium after 4 hours) ([1]; Table 10, 37C static, initial concentration 0.75 mM): 0.87
% Mass Balance [2, 10]: 63.8%
% Mass Transported [2, 10]: 62.2%
% Mass in Apical Side [2, 10]: 1.6%
% Mass Balance [2, 11]: 67.8%
% Mass Transported [2, 11]: 60.0%
% Mass in Apical Side [2, 11]: 7.8%
% Mass Balance [2, 12]: 73.0%
% Mass Transported [2, 12]: 64.0%
% Mass in Apical Side [2, 12]: 9.0%
% Mass Balance [2, 13]: 71.0%
% Mass Transported [2, 13]: 62.7%
% Mass in Apical Side [2, 13]: 8.3%
% Mass Balance [2, 14]: 74.6%
% Mass Transported [2, 14]: 66.7%
Mass Transported (collected in the basal medium after 4 hours) [2, 11]: 0.90
Mass Transported (collected in the basal medium after 4 hours) [2, 12]: 2.4
Mass Transported (collected in the basal medium after 4 hours) [2, 13]: 4.7
Mass Transported (collected in the basal medium after 4 hours) [2, 14]: 7.5
Pseudo first-order rate constant k + SD ([2]; Table 2, 37C static, initial concentration 0.75 mM): 1.76 + 0.06 x 104/sec
Apparent permeability coefficient Pe + SD [2, 15]: 35.1 ×10⁻⁶ cm/s
Pseudo first-order rate constant k + SD [2, 15]: 1.70 + 0.08 x 104/sec
Apparent permeability coefficient Pe + SD ([2]; Table 2, 37C static, initial concentration 2.5 mM): 37.5 ×10⁻⁶ cm/s
Apparent permeability coefficient Pe + SD [2, 16]: 32 ×10⁻⁶ cm/s
Pseudo first-order rate constant k + SD [2, 16]: 1.35 + 0.17 x 104/sec
Apparent permeability coefficient Pe + SD [2, 17]: 37.5 ×10⁻⁶ cm/s
Pseudo first-order rate constant k + SD [2, 17]: 1.56 + 0.11 x 104/sec
% Mass Balance ([2]; Table 3, 2.5 mM, 4C Rocking): 89.3%
% Mass Transported ([2]; Table 3, 2.5 mM, 4C Rocking): 48.6%
% Mass in Apical Side ([2]; Table 3, 2.5 mM, 4C Rocking): 40.7%
% Mass in Apical Side ([2]; Table 3, 2.5 mM, 37C Rocking): 2%
% Mass Balance ([2]; Table 3, 2.5 mM, 37C Static): 73.1%
% Mass Transported ([2]; Table 3, 2.5 mM, 37C Static): 56.9%
Mass Transported (collected in the basal medium after 4 hours) ([2]; Table 3, initial concentration 2.5 mM, 4C Rocking): 1.8
Mass Transported (collected in the basal medium after 4 hours) ([2]; Table 3, initial concentration 2.5 mM, 37C Rocking): 3.0
Mass Transported (collected in the basal medium after 4 hours) ([2]; Table 3, initial concentration 2.5 mM, 37C Static): 2.1
Pseudo first-order rate constant k + SD ([2]; Table 4, 2.5 mM, 37C Rocking): 3.54 + 0.06 x 104/sec
Pseudo first-order rate constant k + SD ([2]; Table 4, 2.5 mM, 37C Static): 1.03 + 0.06 x 104/sec
% Ester in the basal compartment ([2]; 4C Rocking): 74.0%
% FA (corresponding free acid) in the basal compartment ([2]; 4C Rocking): none
% Ester in the basal compartment ([2]; 4C Static): 61.8%
% FA (corresponding free acid) in the basal compartment ([2]; 4C Static): none
% Ester in the basal compartment ([2]; 37C Static): 44.4% and 44%
% FA (corresponding free acid) in the basal compartment ([2]; 37C Static): 44.4% and 44%
mode of transport across the monolayer ([2]; apical-to-basal): passive diffusion
compound recovered after transport through Caco-2 cell monolayers ([2]; apical-to-basal, 4 hours): Approximately 70%
recovery after quantitating the free acids at the conclusion of transport experiments ([2]; ester plus free acid): 100%
ester remaining in the apical compartment ([2]; side-by-side experiment, 37C static, 4 hours): none
% of the original ester at 25 hours [3]: 96%
cytotoxicity [4]: potent
ester degradation to the free acid [5]: all ofthe ester was degraded
recovery in basal-to-apical transport experiments [6]: 100%

NCC(=O)N[C@@H](Cc1ccccc1)C(=O)O [glycine-phenylalanine] (H-Gly-Phe-OH)
substrate specificity [7]: 85%
disappearance rate [8]: 68% and 79%
